Results taken from patent US20200002354A1, “HEXAHYDROPYRAZINOBENZ- OR -PYRIDO-OXAZEPINES CARRYING AN OXYGEN-CONTAINING SUBSTITUENT AND USE THEREOF IN THE TREATMENT OF 5-HT2C-DEPENDENT DISORDERS” (AbbVie Deutschland GmbH & Co. KG, priority 2015, published 2020).
Where two headings read alike, the source gives them in different places.

Assays:
[1] = molecular target: T1, human 5-HT2A receptor (Homo sapiens, UniProt P28223); experiment: Human 5-HT2A functional assay (calcium mobilisation in CHO-K1 cells, FLIPR); type: cell-based; conditions: based on agonism: EC50 5-HT2A/EC50 5-HT2C
T1 construct: expressed in transfected cells; host or cells: CHO-K1
Method in brief: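 CHO-K1 cells stably expressing human 5-HT2A, serum-starved overnight and loaded with calcium dye plus 0.07% probenecid, were given compound (10^−10 to 10^−5 M) for agonism, then serotonin at 3×10^−8 M after 8 min for antagonism. FLIPR calcium responses were normalised to serotonin maximum, and EC50/IC50 came from four-parameter fits, with Kb via Cheng–Prusoff.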

[2] = molecular target: T2, 5-HT2C receptor (Homo sapiens, UniProt P28335); experiment: Human 5-HT2C functional assay (beta-arrestin2 recruitment, U2OS_HTR2C_β-Arrestin cells); type: cell-based; conditions: for Emax: relative efficacy vs maximal effect induced by 5-HT (defined as 100%)
T2 construct: host or cells: U2OS
Method in brief: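 U2OS cells expressing human 5-HT2C with β-arrestin2 enzyme-fragment complementation; switched to 1% serum medium 24 h after plating, compounds added next day for 1.5 h. β-Galactosidase activity read by chemiluminescence; response expressed as percent of 10 μM 5-HT or maximal 5-HT effect (relative efficacy).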

[3] = molecular target: T3, human 5-HT2B receptor (Homo sapiens, UniProt P41595); experiment: Human 5-HT2B functional assay (calcium mobilisation in CHO-FlpIn cells, FLIPR); type: cell-based; conditions: based on agonism: EC50 5-HT2B/EC50 5-HT2C
T3 construct: expressed in transfected cells; host or cells: CHO-FlpIn
Procedure: 3. Human 5-HT2B Functional Assay
Functional activity on the 5-HT2B receptor was determined by testing the effect of the compounds I on calcium mobilisation in CHO-FlpIn cells, stably transfected with human 5-HT2B receptor. Cells were seeded into sterile black 384-well plates with clear bottom at 30,000 cells/well in a volume of 25 μl and grown overnight at 37° C., in 5% CO2 in tissue culture medium (“CHO-S-SFM II” by Invitrogen), containing 1% dialysed FCS and 50 μg/ml gentamicin (Invitrogen). On the next morning, medium was replaced by a serum free version of the same tissue culture medium for a further incubation for 4 hours at 37° C. and in 5% CO2. Cells were then loaded with a fluorescent calcium-sensitive dye in the presence of 0.07% probenecid for an hour at 37° C., according to the manufacturer's protocol (Ca5-Assay Kit, Molecular Devices), followed by an additional 60 min incubation at room temperature. Serial compound dilutions (final concentrations of 10^−10 to 10^−5M, prepared in HBSS+50 mM HEPES) were first added to the cells alone (“first addition” to assess agonism on the 5-HT2B receptor), then after 8 min, serotonin was added to the same wells at a final concentration of 10^−8 M (“second addition” to see potential antagonistic effect) and the maximal calcium response was determined using a FLIPR® Tetra instrument (Molecular Devices) in each of the two steps. The relative efficacy of the compounds was calculated as a percentage of the maximal effect induced by serotonin alone (defined as 100%). To determine EC50/IC50 values, concentration-response curves were fitted using a four-parameter logistic equation (IDBS Biobookml). Kb values were calculated from IC50 values, according to Cheng & Prusoff

[4] = Metabolic stability in human liver microsomes, unbound intrinsic clearance; type: in vitro ADME; conditions: pH 7.4
Method in brief: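 Compound at 0.5 μM incubated with human liver microsomes (0.25 mg/mL) in 0.05 M potassium phosphate pH 7.4 at 37° C, started with 1.0 mM NADPH; sampled 0–30 min, parent quantified by LC-MS/MS. First-order t1/2 gives CLint (uL/min/mg), scaled to L/h/kg; unbound CLint = CLint/fu mic.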

[5] = Potency (EC50 5-HT2C) in functional assay, agonism, read-out: EC50 5-HT2C
[6] = liver microsomes, unbound intrinsic clearance (human), Clint unbound = Cl int/fu mic, read-out: Cl int, mic unb. (h)

T1 sequence (P28223 whole entry): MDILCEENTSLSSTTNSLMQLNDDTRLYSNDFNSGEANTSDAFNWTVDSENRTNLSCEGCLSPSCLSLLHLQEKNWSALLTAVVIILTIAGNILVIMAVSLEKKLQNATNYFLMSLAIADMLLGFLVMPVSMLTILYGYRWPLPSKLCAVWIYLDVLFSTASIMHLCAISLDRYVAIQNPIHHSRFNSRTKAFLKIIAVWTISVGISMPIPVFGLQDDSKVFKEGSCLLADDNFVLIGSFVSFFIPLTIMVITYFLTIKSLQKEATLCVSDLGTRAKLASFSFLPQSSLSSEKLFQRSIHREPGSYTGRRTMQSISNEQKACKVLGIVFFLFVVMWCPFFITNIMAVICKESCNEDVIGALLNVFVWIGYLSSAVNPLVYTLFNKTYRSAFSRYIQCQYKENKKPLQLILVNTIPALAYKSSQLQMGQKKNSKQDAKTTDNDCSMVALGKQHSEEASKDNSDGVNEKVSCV
T3 sequence (P41595 whole entry): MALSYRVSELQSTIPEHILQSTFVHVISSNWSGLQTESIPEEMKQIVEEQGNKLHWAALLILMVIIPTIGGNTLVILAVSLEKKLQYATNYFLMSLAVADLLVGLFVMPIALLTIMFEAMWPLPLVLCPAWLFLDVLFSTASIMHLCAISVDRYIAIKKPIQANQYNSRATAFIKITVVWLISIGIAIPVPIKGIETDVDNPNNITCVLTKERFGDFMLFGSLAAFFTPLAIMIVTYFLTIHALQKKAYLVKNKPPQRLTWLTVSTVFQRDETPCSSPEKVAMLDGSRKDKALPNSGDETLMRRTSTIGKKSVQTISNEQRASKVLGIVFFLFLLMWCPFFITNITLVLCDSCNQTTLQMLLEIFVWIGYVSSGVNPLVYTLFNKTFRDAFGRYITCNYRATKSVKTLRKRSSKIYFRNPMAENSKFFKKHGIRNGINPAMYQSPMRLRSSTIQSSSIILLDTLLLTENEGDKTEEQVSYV
T2 sequence (P28335 33-458): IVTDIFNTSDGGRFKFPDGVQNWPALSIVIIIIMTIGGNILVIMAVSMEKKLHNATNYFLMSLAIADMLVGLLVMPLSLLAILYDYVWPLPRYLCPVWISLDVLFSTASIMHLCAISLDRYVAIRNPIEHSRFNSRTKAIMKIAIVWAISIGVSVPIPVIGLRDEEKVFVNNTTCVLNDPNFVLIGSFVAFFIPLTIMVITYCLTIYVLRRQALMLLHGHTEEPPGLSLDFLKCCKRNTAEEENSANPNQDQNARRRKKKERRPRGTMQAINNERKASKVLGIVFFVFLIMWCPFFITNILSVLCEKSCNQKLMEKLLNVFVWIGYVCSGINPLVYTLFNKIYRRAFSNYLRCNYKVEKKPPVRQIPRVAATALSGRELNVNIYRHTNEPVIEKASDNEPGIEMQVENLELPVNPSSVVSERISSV
T2 sequence (P32121 whole entry partner): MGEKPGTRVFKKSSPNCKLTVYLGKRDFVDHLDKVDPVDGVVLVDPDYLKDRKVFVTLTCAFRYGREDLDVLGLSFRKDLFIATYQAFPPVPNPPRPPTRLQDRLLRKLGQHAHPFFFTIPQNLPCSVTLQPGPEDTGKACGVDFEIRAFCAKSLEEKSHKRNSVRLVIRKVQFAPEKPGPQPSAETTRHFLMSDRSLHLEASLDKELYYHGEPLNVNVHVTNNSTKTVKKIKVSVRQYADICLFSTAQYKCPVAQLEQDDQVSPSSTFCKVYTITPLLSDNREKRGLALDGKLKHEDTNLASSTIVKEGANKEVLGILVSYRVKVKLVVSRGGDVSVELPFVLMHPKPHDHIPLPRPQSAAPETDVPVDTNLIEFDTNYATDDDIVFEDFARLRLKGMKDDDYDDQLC

Row | Compound | Selectivity over 5-HT2A [1] | EC50 [2, 5] [nM] | Emax [2] [%] | Selectivity over 5-HT2B [3] | CLint scaled at 0.5 μM [4, 6] [mL/min/kg] | EC50 [2] [nM] | CLint scaled at 0.5 μM ([4]; human, microsomes) [mL/min/kg]
1 | C#Cc1cc(F)c(F)c2c1O[C@H](COC)C[C@@H]1CNCCN21.Cl [Example 40, (4aR,6S)-8-Ethynyl-10,11-difluoro-6-(methoxymethyl)-2,3,4,4a,5,6-hexahydro-1H-pyrazino[2,1-d][1,5]benzoxazepine hydrochloride] | +++ (>100) | < 20 | > 70 | + (from 10 to 30) | < 83.3 | – | –
2 | COC[C@@H]1C[C@@H]2CNCCN2c2cc(Cl)ccc2O1.Cl [Example 10, (4aR,6S)-10-Chloro-6-(methoxymethyl)-2,3,4,4a,5,6-hexahydro-1H-pyrazino[2,1-d][1,5]benzoxazepine hydrochloride] | ++ (from >30 to 100) | 20 to 200 | – | ++ (from >30 to 100) | 83.3 to 833 | – | –
3 | COC[C@@H]1C[C@@H]2CNCCN2c2ccc(C)c(F)c2O1 [Example 30, (4aR,6S)-8-Fluoro-6-(methoxymethyl)-9-methyl-2,3,4,4a,5,6-hexahydro-1H-pyrazino[2,1-d][1,5]benzoxazepine] | ++ (from >30 to 100) | 20 to 200 | 50 to 70 | ++ (from >30 to 100) | < 83.3 | – | –
4 | COC[C@@H]1C[C@@H]2CNCCN2c2cccc(C(F)F)c2O1.Cl [Example 6, (4aR,6S)-8-(Difluoromethyl)-6-(methoxymethyl)-2,3,4,4a,5,6-hexahydro-1H-pyrazino[2,1-d][1,5]benzoxazepine hydrochloride] | +++ (>100) | < 20 | > 70 | ++ (from >30 to 100) | < 83.3 | – | –
5 | COC[C@@H]1C[C@@H]2CNCCN2c2ccc(F)c(Cl)c2O1.Cl [Example 5, (4aR,6S)-8-Chloro-9-fluoro-6-(methoxymethyl)-2,3,4,4a,5,6-hexahydro-1H-pyrazino[2,1-d][1,5]benzoxazepine hydrochloride] | +++ (>100) | < 20 | > 70 | + (from 10 to 30) | < 83.3 | – | –
6 | COC[C@@H]1C[C@@H]2CNCCN2c2cccc(C#N)c2O1.Cl [Example 12, (4aR,6S)-6-(Methoxymethyl)-2,3,4,4a,5,6-hexahydro-1H-pyrazino[2,1-d][1,5]benzoxazepine-8-carbonitrile hydrochloride] | +++ (>100) | 20 to 200 | > 70 | + (from 10 to 30) | 83.3 to 833 | – | –
7 | COC[C@@H]1C[C@@H]2CNCCN2c2cc(F)c(F)c(Cl)c2O1.Cl [Example 38, (4aR,6S)-8-Chloro-9,10-difluoro-6-(methoxymethyl)-2,3,4,4a,5,6-hexahydro-1H-pyrazino[2,1-d][1,5]benzoxazepine hydrochloride] | ++ (from >30 to 100) | < 20 | > 70 | ++ (from >30 to 100) | < 83.3 | – | –
8 | COC[C@@H]1C[C@@H]2CNCCN2c2cc(F)ccc2O1.Cl [Example 8, (4aR,6S)-10-Fluoro-6-(methoxymethyl)-2,3,4,4a,5,6-hexahydro-1H-pyrazino[2,1-d][1,5]benzoxazepine hydrochloride] | +++ (>100) | 20 to 200 | > 70 | +++ (>100) | < 83.3 | – | –
9 | COC[C@@H]1C[C@@H]2CNCCN2c2ccc(F)cc2O1.Cl [Example 51, (4aR,6S)-9-Fluoro-6-(methoxymethyl)-2,3,4,4a,5,6-hexahydro-1H-pyrazino[2,1-d][1,5]benzoxazepine hydrochloride] | + (from 10 to 30) | 200 to 1000 | 50 to 70 | ++ (from >30 to 100) | < 83.3 | – | –
10 | COC[C@H]1C[C@@H]2CNCCN2c2c(F)c(F)cc(Cl)c2O1.Cl [Example 37, (4aR,6R)-8-Chloro-10,11-difluoro-6-(methoxymethyl)-2,3,4,4a,5,6-hexahydro-1H-pyrazino[2,1-d][1,5]benzoxazepine hydrochloride] | + (from 10 to 30) | 200 to 1000 | 30 to 50 | + (from 10 to 30) | < 83.3 | – | –
11 | C#Cc1cc(F)c2c(c1)N1CCNC[C@H]1C[C@@H](COC)O2.O=C(O)C(O)C(O)C(=O)O [Example 36, (4aR,6S)-10-Ethynyl-8-fluoro-6-(methoxymethyl)-2,3,4,4a,5,6-hexahydro-1H-pyrazino[2,1-d][1,5]benzoxazepine; (2R,3R)-2,3-dihydroxybutanedioic acid] | + (from 10 to 30) | 200 to 1000 | 50 to 70 | + (from 10 to 30) | 83.3 to 833 | – | –
12 | C#Cc1cc(F)cc2c1O[C@H](COC)C[C@@H]1CNCCN21.Cl [Example 34, (4aR,6S)-8-Ethynyl-10-fluoro-6-(methoxymethyl)-2,3,4,4a,5,6-hexahydro-1H-pyrazino[2,1-d][1,5]benzoxazepine hydrochloride] | +++ (>100) | < 20 | > 70 | + (from 10 to 30) | < 83.3 | – | –
13 | COC[C@@H]1C[C@@H]2CNCCN2c2c(F)cccc2O1.Cl [Example 54, (4aR,6S)-11-Fluoro-6-(methoxymethyl)-2,3,4,4a,5,6-hexahydro-1H-pyrazino[2,1-d][1,5]benzoxazepine hydrochloride] | + (from 10 to 30) | 200 to 1000 | 30 to 50 | + (from 10 to 30) | < 83.3 | – | –
14 | COC[C@@H]1C[C@@H]2CNCCN2c2c(F)ccc(Cl)c2O1.O=C(O)/C=C/C(=O)O [Example 15, (4aR,6S)-8-Chloro-11-fluoro-6-(methoxymethyl)-2,3,4,4a,5,6-hexahydro-1H-pyrazino[2,1-d][1,5]benzoxazepine; fumaric acid] | +++ (>100) | < 20 | > 70 | +++ (>100) | < 83.3 | – | –
15 | COC[C@@H]1C[C@@H]2CNCCN2c2ccccc2O1.O=C(O)C(F)(F)F [Example 3, (4aR,6S)-6-(Methoxymethyl)-2,3,4,4a,5,6-hexahydro-1H-pyrazino[2,1-d][1,5]benzoxazepine; 2,2,2-trifluoroacetic acid] | + (from 10 to 30) | – | 50 to 70 | + (from 10 to 30) | – | 200 to 1000 | < 83.3
16 | Cl.[2H]C([2H])([2H])OC[C@@H]1C[C@@H]2CNCCN2c2cc(F)cc(Cl)c2O1 [Example 19, (4aR,6S)-8-Chloro-10-fluoro-6-(trideuteriomethoxymethyl)-2,3,4,4a,5,6-hexahydro-1H-pyrazino[2,1-d][1,5]benzoxazepine hydrochloride] | +++ (>100) | < 20 | > 70 | ++ (from >30 to 100) | < 83.3 | – | –
17 | COC[C@@H]1C[C@@H]2CNCCN2c2cc(F)cc(Cl)c2O1.Cl [Example 7, (4aR,6S)-8-Chloro-10-fluoro-6-(methoxymethyl)-2,3,4,4a,5,6-hexahydro-1H-pyrazino[2,1-d][1,5]benzoxazepine hydrochloride] | +++ (>100) | < 20 | > 70 | +++ (>100) | < 83.3 | – | –
